Laboratory results: patent US20080132481A1, “INTERLEUKIN-4 GENE EXPRESSION INHIBITORS” (AVENTIS PHARMACEUTICALS INC., priority 2002, published 2008)
Each block holds one molecule with its values, some of them ahead of it.

Key:
[1] = system: sheep allergic to Ascaris suum; assay: Sheep asthma model (Ascaris suum antigen challenge); format: in vivo
Description: Briefly, transpulmonary pressure, pulmonary resistance (RL), specific lung resistance (SRL airway hyperreactivity, airway responsiveness, are determined.
Venous blood samples (˜5 ml) are obtained from a peripheral leg vein or the jugular vein for pharmacokinetic data. Measurement of Airway Mechanics: The unsedated sheep are restrained in a cart in the prone position with their heads immobilized. After topical anesthesia of the nasal passages with 2% lidocaine solution, a balloon catheter is advanced through one nostril into the lower esophagus. The animals are […] with a cuffed endotracheal tube through the other nostril using a flexible fiberoptic bronchoscope as a guide. (The cuff of the endotracheal tube is inflated only for the measurement of airway mechanics and during aerosol challenges to prevent undue discomfort. This procedure has no effect on airway mechanics). Pleural pressure is estimated with the esophageal balloon catheter (filled with one ml of air) which is positioned 5-10 cm from the gastroesophageal junction. In this position the end expiratory pleural pressure ranges between −2 and −5 cm H20. Once the balloon is placed, it is secured so that it remains in position for the duration of the experiment. Lateral pressure in the trachea is measured with a sidehole catheter (inner dimension, 2.5 mm) advanced through and positioned distal to the tip of the endotracheal tube. Transpulmonary pressure, the difference between tracheal and pleural pressure, is measured with a differential pressure transducer catheter system. […] The signals of flow and transpulmonary pressure is recorded on an oscilloscope recorder which is linked to a computer for on-line calculation of RL from transpulmonary pressure, respiratory volume (obtained by digital integration) and flow. […] Immediately after the measurement of RL, thoracic gas volume (Vtg) is measured in a constant volume body plethysmograph to obtain specific lung resistance (SRL=RL·Vtg) in L×cm H20/LPS. […]

[2] = system: Swiss 3T3 fibroblasts; assay: In vitro cytotoxicity assay on contact inhibited 3T3 fibroblasts (MTS); format: cell-based
Description: Other toxicity assays may be used.
Any compound killing 3T3 fibroblast cells was omitted from further studies.
Contact inhibited Swiss 3T3 fibroblasts are purchased from ATCC.
All compound dilutions are assayed in triplicate. […] Cells are returned to the incubator for 2 days.
Media is added to blank wells for background calculations.
Note that starting concentration of CsA was 1 μM.

[3] = system: IL-4; assay: Human primary Th2 cells, IL-4 by ELISA; format: cell-based; details: for IL-4 (% control) mean: human Th2 cells, anti-CD3/anti-CD28, 48 hr; for IC50: human primary Th2 cells activated with anti-CD3 and anti-CD28 (Table 5)
Description: Briefly, CD4^+CD45RA^+ T cells, isolated from donor peripheral blood mononuclear cells of healthy donors, are educated in the presence of anti-CD3/CD28 antibodies and various growth factors to obtain either a Th1-like or Th2-like phenotypes as determined by the known cytokine profiles of these two cell types.
(§1) Peripheral blood mononuclear cells (PBMC) are prepared from human blood by Ficoll-Hypacque (Pharmacia). The cells are washed two times in Hanks balanced salt solution (HBSS) and counted.
Naïve T cells (CD4^+/CD45RA) are prepared by negative selection method using following antibodies and Dynabeads: anti-CD8, anti-HLA-DR, (where HLA means human leucocyte antigen) anti-CD14, anti-CD16, anti-CD19, anti-CD45RO antibodies (all from R&D Systems, 1-2 μg/ml) are added to the cells, and the cells are kept on ice for 30 min. The cells are washed two times in HBSS, and goat anti-mouse Ig-beads, (bead:target ratio, 5:1) are added. The cells and beads are slowly rotated at 4° C. for 20 min. (following the protocol supplied from Dynal). The supernatant is removed and fresh goat anti-mouse Ig-beads are added to the supernatant, which is slowly rotated at 4° C. for 20 min. The cells are counted and phenotypically characterized by flow cytometric analysis.
Generation of Th1/Th2 cells: Twenty four well plates are coated with 300 μL anti-CD3 Ab (10 μg/ml, in PBS 1-2 h at 37° C. or overnight at 4° C.), and washed two times with PBS. […]/CD45RA^+ cells at a density of 10^6/ml in RPMI, is prepared and added to RPMI medium containing 10% Hyclone serum/glutamine and 1-2 μg/ml anti-CD28 Ab. The cells are split in two aliquots. For Th1 cells: anti-IL-4 Ab (1-2 μg/ml), IFN-γ (1 μg/ml, or 5000 units/ml) are added to the wells. For Th2 cells: IL-4 (100-200 ng/ml), anti-IFN-γ neutralizing Ab (1-2 μg/ml), anti-IL-12 neutralizing Ab (1-2 μg/ml) are added into the wells. The cells are incubated for 2-3 days at 37° C. The cells are transferred to fresh wells and grown in 200 units/ml IL-2 for 2 weeks by feeding them every other day with IL-2 containing medium and splitting the cultures 1:2 or 1:3 as needed. The degree of polarization is determined by intracellular staining of cells with anti-IFN-γ and anti-IL-4 antibodies from Pharmingen, and using flow cytometry from Becton Dickinson (BD), according to manufacturers description. The cells are stimulated with PHA and alloantigens at day 14 and 28 as described below. Eight days after the second allostimulation the cells can be used for compound screening or frozen for future use. For compound testing, large quantities of Th1 and Th2 cells derived from a given donor (NYTh1 and NYTh2) were expanded and frozen as aliquots in liquid nitrogen. The cells are thawed and cultured as and when needed. The thawed cells are stimulated with alloantigen/PHA combination. The cells are used for compound screening after 8-10 days in culture.
Re-stimulation by allogeneic cells: Human PBMCs, to be used as alloantigens, are isolated from freshly drawn blood by Ficoll separation. Cells are resuspended in medium containing 50 μg/ml mitomycin C and incubated for 40 minutes at 37° C. and then washed extensively to remove all of the Mitomycin C. Cells are counted and diluted to a final concentration of 2×10^6/ml in medium containing 10 μg/ml PHA and 200 units/ml IL-2.

[4] = system: IL-13; assay: Human primary Th2 cells, IL-13 by ELISA; format: cell-based; details: human primary Th2 cells activated with anti-CD3 and anti-CD28 (Table 5)
Description: (§2) The methods described herein permit polarization of primary human peripheral blood cells into Th1 and Th2 cells and generation of sufficiently large quantities of Th1 and Th2 cells, e.g., billions of cells, to allow drug screening. Briefly, CD4^+CD45RA^+ T cells, isolated from donor peripheral blood mononuclear cells of healthy donors, are educated in the presence of anti-CD3/CD28 antibodies and various growth factors to obtain either a Th1-like or Th2-like phenotypes as determined by the known cytokine profiles of these two cell types. Primary human Th1 cells secreted IFN-γ and IL-2 cytokines while primary human Th2 cells secreted IL-4, IL-5, IL-13 and basal amounts of IFN-γ that are measurable by enzyme linked immuno absorption assay (ELISA).
as §1
(§3) Naïve T cells (CD4^+/CD45RA) are prepared by negative selection method using following antibodies and Dynabeads: anti-CD8, anti-HLA-DR, (where HLA means human leucocyte antigen) anti-CD14, anti-CD16, anti-CD19, anti-CD45RO antibodies (all from R&D Systems, 1-2 μg/ml) are added to the cells, and the cells are kept on ice for 30 min. […] The cells are counted and phenotypically characterized by flow cytometric analysis. […]

[5] = system: Human Th2 cells; assay: Human primary Th2 cells, proliferation (MTS viability test); format: cell-based; details: human primary Th2 cells activated with anti-CD3 and anti-CD28 (Table 5); read-out: Prolif. IC50
Description: as §2, §1, §3

[6] = system: IL-5; assay: Human primary Th2 cells, IL-5 by ELISA; format: cell-based; details: human primary Th2 cells activated with anti-CD3 and anti-CD28 (Table 5)
Description: as §2, §1, §3

[7] = system: IFN-γ; assay: Human primary Th2 cells, IFN-γ by ELISA; format: cell-based; details: human primary Th2 cells activated with anti-CD3 and anti-CD28 (Table 5)
Description: as §2, §1, §3

[8] = system: ovalbumin specific IgE; assay: OVA induced IgE in mice; format: in vivo, mouse; details: serum day 15, 10 mg/kg intraperitoneally once a day from day 6 to day 14, vehicle 150.8
Description: Table 10 summarizes effects of 3-(4-pyridinylamino)-1H-indole-2-carboxylic acid on OVA induced IgE in mice. Female mice (5-8 week age, Balb/c, Charles River) were used in this study. Ovalbumin (Sigma) was adsorbed to Aluminum Hydroxide Adsorptive Gel, Inter, and injected 10 μg/0.2 ml/mouse intraperitoneally on experimental day 0 and day 7. Dexamethasone (Sigma) and 3-(4-pyridinylamino)-1H-indole-2-carboxylic acid (Example 28) were in 10% HPCD (Hydroxypropyl-β-Cyclodextrin, Aldrich). Dexamethasone (10 mg/kg), 3-(4-pyridinylamino)-1H-indole-2-carboxylic acid (Example 28) (3 and 10 mg/kg) and 10% HPCD (0.2 ml/mouse) are injected into mice intraperitoneally once a day from day 6 to day 14. They were bled at day 15. Serum ovalbumin specific IgE levels were determined by standard ELISA using a goat anti-mouse IgE antibody labeled with alkaline phosphatase. The anti-OVA titers were determined by malting serial dilutions of the test sera and comparing with vehicle control.

[9] = 3 mg/kg aerosol 30 min before antigen challenge, 2 sheep per group (FIG. 3A)

SMILES: O=C(O)c1[nH]c2ccccc2c1Nc1ccncc1 [Example 28, 3-(4-Pyridinylamino)-1H-indole-2-carboxylic acid]
antigen-induced early bronchial response: acute increase in specific lung resistance (SRL) [1, 9]: did not affect
antigen-induced late bronchial response (SRL) [1, 9]: blocked the late response
post challenge airway responsiveness (decrease of PC400 after antigen challenge) ([1]; 3 mg/kg, 2 sheep (FIG. 3B)): prevented this effect
toxic effects on quiescent 3T3 cells (in words) [2]: no toxic effects
IL-4 (% control) mean ([3]; 0.01 μM): 102.15 % control
IL-4 (% control) mean ([3]; 0.03 μM): 65.30 % control
IL-4 (% control) mean ([3]; 0.1 μM): 59.75 % control
IL-4 (% control) mean ([3]; 0.3 μM): 45.00 % control
IL-4 (% control) mean ([3]; 1 μM): 42.55 % control
IL-4 (% control) mean ([3]; 3 μM): 36.40 % control
IL-4 (% control) mean ([3]; 10 μM): 30.80 % control

IC50 [4]: > 10 µM
IC50 [6]: > 10 µM
IC50 [3]: 1 µM
IC50 [7]: > 10 µM
SMILES: CCOC(=O)c1[nH]c2cc(Cl)cc(Cl)c2c1N(C)C(=O)c1ccccc1 [Example 83, 3-((Benzoyl)methylamino)-4,6-dichloro-1H-indole-2-carboxylic acid ethyl ester]
IC50 [5]: > 10 µM

SMILES: C[C@@H]1C[C@H]2[C@@H]3CCC4=CC(=O)C=C[C@]4(C)[C@@]3(F)[C@@H](O)C[C@]2(C)[C@@]1(O)C(=O)CO [Dexamethasone]
Anti-OVA IgE [8]: 27.4

IC50 [4]: > 10 µM
IC50 [6]: > 10 µM
IC50 [3]: 0.15 µM
IC50 [7]: > 10 µM
SMILES: O=C(O)c1[nH]c2cc(Cl)ccc2c1NC(=O)C1CCNCC1 [Example 82, 3-((4-Piperidineacyl)amino)-6-chloro-1H-indole-2-carboxylic acid]
IC50 [5]: > 10 µM
